Counter-ions that a name gives are not always drawn.
Legend:
Format in all cases: cell-based
[1] = test system: Escherichia coli (ATCC number: 25922); test: Phototoxicity test (photodynamic activity, CFU assay) against gram-negative bacteria; settings: E. coli; 15 min incubation in darkness, then irradiation 12.3 J/cm^2 blue light (Emax 418 nm); CFU/ml 24 h after
Experimental: (§1) A sample of the bacterial strain Staphylococcus aureus (ATCC number: 25923) or Escherichia coli (ATCC number: 25922) was extracted from a cryogenically frozen culture, isolated on Müller-Hinton agar plates, and cultured under aerobic conditions at 37° C. in an overnight culture. 10 ml Müller-Hinton liquid medium was then inoculated with a smear of the bacterial culture (individual colony) and incubated overnight at 37° C. The thus-obtained bacterial suspension was centrifuged for 15 min at 3000 rpm and the obtained bacterial pellet was resuspended in 10 ml sterile PBS. The optical density of the bacterial suspensions for the phototoxicity tests was OD600nm=0.6, which corresponds to a bacterial count of ˜[…] bacteria per ml. The biochemical analysis and resistance determination of the bacteria were carried out with the VITEK2 system according to the guidelines M100-S14 of the NCCLS (National Committee for Clinical Laboratory Standards guidelines 2004).
(§2) 200 μl of a bacterial suspension (bacterial density: 10^8-10^12/ml) was incubated with 200 μl each of different concentrations of the photosensitizers listed in Table 1 at 37° C. in darkness for 15 minutes. The bacteria were then washed twice with PBS, resuspended in 200 μl PBS, the entire volume was transferred to a 96-well microtiter plate and then irradiated.
(§3) For the sensitization, the UV 236 lamp (emission 380-480 nm, with an emission maximum Emax: 418 nm) from Waldmann Medizintechnik was used and the plates lying on the light source were irradiated from below, in order to prevent scattering through the liquid. The applied light dose was 12.3 J/cm^2. As controls, bacterial suspensions that were irradiated, not irradiated and only incubated with photosensitizer were entrained, and incubated both with and without photosensitizer.
(§4) The CFU assay was then carried out to determine the colony-forming units per ml (CFU). For this, a series of dilutions from 10^−1 to 10^−9 of the corresponding bacterial suspension was produced. 100 μl was then plated onto Müller-Hinton plates and incubated at 37° C. for 24 h. The number of surviving colonies was then determined by counting and plotted on a graph as colony-forming units (CFU) per ml against the respectively used photosensitizer concentration.

[2] = test system: Staphylococcus aureus (ATCC number: 25923); test: Phototoxicity test (photodynamic activity, CFU assay) against gram-positive bacteria; settings: for Required concentration in order to achieve a reduction by ≧ 3 log10 steps: S. aureus, 15 min incubation in darkness, then irradiation 12.3 J/cm^2 blue light (Emax 418 nm), CFU/ml 24 h after; for antimicrobial action compared with the starting substance perinaphthenone: from Table 1 (S. aureus and E. coli, sentence does not separate them), reduction of the germ count by 3 log10 steps; for times lower concentration needed to achieve a reduction by 3 log10 steps, compared with perinaphthenone: phototoxicity test, Table 1 (S. aureus and E. coli, sentence does not separate them)
Experimental: as §1, §2, §3, §4

[3] = test system: S. aureus; test: Surface disinfection of catheter tubes, cell count after illumination; settings: catheter sections with dried S. aureus; 5 min in darkness, 12.3 J/cm^2 blue light (Emax 418 nm) for 30 min
Experimental: 5-cm long catheter sections were filled with 1 ml of a stable S. aureus solution (1 E+12 cfu/ml) and incubated overnight at 37° C. After drying-out of the solution, in each case 2 ml of a solution of PBS which contained a corresponding concentration (0, 1, 10, 50, 80 and 100 μM) of the compounds produced in Examples 2), 4b), 5b), 7) and 10) and 1H-phenalene-1-one was sprayed. After a short exposure time of 5 minutes in darkness, the catheter sections were illuminated with a light dose of 12.3 J/cm^2 with blue light (Emax: 418 nm) for a period of 30 min.
As a control, in each case non-illuminated catheter sections were used, to which the corresponding concentrations (0, 1, 10, 50, 80 and 100 μM) of the compounds produced in Examples 1b)-f) and 1H-phenalene-1-one were applied.
To determine the cell count, the illuminated and non-illuminated catheter sections were filled with 1 ml PBS and ultrasounded. Growth medium was added to the washing solution in different dilutions (10^0 to 10^7) and the solution was smeared onto agar plates. The cell count was performed after 24 h of incubation at 37° C.

| Compound | Required concentration in order to achieve a reduction by ≧ 3 log10 steps [1] | Required concentration in order to achieve a reduction by ≧ 3 log10 steps [2] | times lower concentration needed to achieve a reduction by 3 log10 steps, compared with perinaphthenone [3] | antimicrobial action compared with the starting substance perinaphthenone [2] | times lower concentration needed to achieve a reduction by 3 log10 steps, compared with perinaphthenone [2] |
| --- | --- | --- | --- | --- | --- |
| O=C1C=Cc2cccc3cccc1c23 [Comparison, perinaphthenone, reference compound] | 300 μM | 200 μM | – | – | – |
| NCC1=Cc2cccc3cccc(c23)C1=O [Example 2, 2-Aminomethyl-1H-phenalene-1-one] | 50 μM | 1 μM | approximately 10 times | improved antimicrobial action | approximately 10 times |
| NCCOCC1=Cc2cccc3cccc(c23)C1=O [Example 4b, 2-((2-Aminoethoxy)methyl)-1H-phenalene-1-one hydrochloride] | 300 μM | 50 μM | approximately 10 times | improved antimicrobial action | approximately 10 times |
| NCCOCCOCC1=Cc2cccc3cccc(c23)C1=O [Example 5b, 2-((2-(2-Aminoethoxy)ethoxy)methyl)-1H-phenalene-1-one hydrochloride] | 80 μM | 50 μM | approximately 10 times | improved antimicrobial action | approximately 10 times |
| O=C1C(C[n+]2ccccc2)=Cc2cccc3cccc1c23 [Example 7] | 10 μM | 80 μM | approximately 10 times | improved antimicrobial action | approximately 10 times |
| CC[N+](CC)(CC)CC1=Cc2cccc3cccc(c23)C1=O [Example 10, 2-((N,N,N-Triethyl)aminomethyl)-1H-phenalene-1-one hydrochloride] | 50 μM for S. aureus; 50 μM for E. coli | 50 μM for S. aureus; 50 μM for E. coli | approximately 10 times | improved antimicrobial action | approximately 10 times |

— patent US9302004B2, “Phenalene-1-one derivatives, method for producing same and use thereof” (TRIOPTOTEC GMBH, priority 2011, dated 2016)
